Reference: US20090099204A1, “Amide derivative, insecticide containing the same and method for application thereof as insecticide” (Mitsui Chemicals, Inc., priority 2005, published 2009)

How the values were obtained:
Format in all cases: in vivo
[1] = test system: Onion Thrip (Thrips tabaci); conditions: Comparative Example 1; same conditions as Test Example 5
Method: Insecticidal Test on Onion Thrip (Thrips tabaci)
A chemical to the prescribed concentration was dispersed on onion seedlings, air-dried, and then both the seedlings and 5 adult insects of onion thrips were put into a glass test tube (diameter; 3 cm, height: 10 cm). The resulting material was lidded. 3 days thereafter, the number of surviving insects was counted and the mortality was calculated.

[2] = test system: Western Flower Thrip (Franklinella occidentalis); test: Insecticidal Test on Western Flower Thrip (Franklinella occidentalis); conditions: Comparative Example 1; same conditions as Test Example 3
[3] = test system: Melon Thrip (Thrips palmi); test: Insecticidal Test on Melon Thrip (Thrips palmi); conditions: Comparative Example 1; same conditions as Test Example 4
From the text: Insecticidal Test on Melon Thrip (Thrips palmi)
Into a plastic cup (diameter: 5 cm, height: 5 cm) was poured 1% agar gel, and the reverse side of a cucumber leaf cut with a diameter of 4.5 cm was placed upward to prepare leaf disc. A chemical to the prescribed concentration was dispersed thereon using a vertical sprayer. After air-drying, 5 adult melon thrips were released thereinto and the resulting material was lidded. 3 days thereafter, the number of surviving insects was counted and the mortality was calculated.

[4] = test system: Diamondback Moth (Plutella xylostella); test: Insecticidal Test on Diamondback Moth (Plutella xylostella); conditions: Comparative Example 1; same conditions as Test Example 2
Method: Insecticidal Test on Diamondback Moth (Plutella xylostella)
A piece of cabbage leaf was immersed for 30 seconds in a liquid chemical prepared by diluting a test compound to a prescribed concentration. After air-drying, the piece was put into a 7-cm polyethylene cup and second-instar larvae of diamondback moths were released thereinto. The polyethylene cups were set in an isothermal chamber thermostated at 25° C. From the release, 6 days later, the dead and alive were counted. The test was carried out with two replications of 5 insects per a plot.

[5] = test system: Common Cutworm (Spodoptera litura); test: Insecticidal Test on Common Cutworm (Spodoptera litura); conditions: Comparative Example 1; same conditions as Test Example 1
Method: Insecticidal Test on Common Cutworm (Spodoptera litura)
A piece of cabbage leaf was immersed for 30 seconds in a liquid chemical prepared by diluting a test compound to a prescribed concentration. After air-drying, the piece was put into a 7-cm polyethylene cup and second-instar larvae of common cutworms were released thereinto. The polyethylene cups were set in an isothermal chamber thermostated at 25° C. From the release 6 days later, the dead and alive were counted. The test was carried out with two replications of 5 insects per a plot.

Measured: insecticidal activity

Cc1cc(C(F)(C(F)(F)F)C(F)(F)F)ccc1NC(=O)c1cccc(NC(=O)c2ccccc2I)c1 [Compound A, N-(4-heptafluoroisopropyl-2-methyl)phenyl 3-(2-iodobenzoylamino)benzamide]
could not be confirmed: all assays above

Cc1cc(C(F)(F)F)cc(C)c1NC(=O)c1cccc(NC(=O)c2ccccc2)c1 [Compound B, N-(2,6-dimethyl-4-trifluoromethyl)phenyl 3-(benzoylamino)benzamide]
could not be confirmed: all assays above
